Experimental data reported in ChEMBL document CHEMBL4765253, “Discovery, synthesis, and optimization of an N-alkoxy indolylacetamide against HIV-1 carrying NNRTI-resistant mutations from the Isatis indigotica root” (Eur J Med Chem, 2020).

Tests used:
[1] = tested on: Human immunodeficiency virus 1; assay: Antiviral activity against VSVG/wild-type HIV-1 infected in human HEK 293T cells assessed as inhibition of virus replication preincubated with cells for 15 mins prior to viral infection and measured at 48 hrs post-infection by luciferase reporter gene assay; format: functional, organism-based, HEK293T; details: Human immunodeficiency virus 1, HEK-293T
HEK-293T [2] = assay: Cytotoxicity against human HEK 293T cells assessed as reduction in cell viability measured after 48 hrs by Celltiter-glo assay; format: cell-based
[3] = tested on: Human immunodeficiency virus 1; assay: Antiviral activity against VSVG/wild-type HIV-1 infected in human HEK 293T cells assessed as viral infection at 10 uM preincubated with cells for 15 mins prior to viral infection and measured at 48 hrs post-infection by luciferase reporter gene assay; format: functional, HEK293T; details: time 2895 min, 48.25 h
HEK-293T [4] = assay: Cytotoxicity against human HEK 293T cells assessed as cell viability at 30 uM measured after 48 hrs by Celltiter-glo assay; format: cell-based
[5] = Selectivity index, ratio of CC50 for human HEK 293T cells to EC50 for VSVG/wild type HIV1 infected in human HEK 293T cells; format: toxicity, cell-based; details: read-out: Ratio CC50/EC50
[6] = Inhibition of HIV-1 reverse transcriptase RNA-dependent DNA polymerase activity assessed as reduction in dTTP incorporation using poly(rA)/oligo(dT) as template/primer incubated for 1 hr followed by transferring into streptavidin plate for 1 hr by absorbance based analysis; design: species or system Human immunodeficiency virus 1
[7] = tested on: Human immunodeficiency virus 1; assay: (§1) Antiviral activity against VSVG/HIV-1 harboring reverse transcriptase K103N mutant infected in human HEK 293T cells assessed as inhibition of virus replication preincubated with cells for 15 mins prior to viral infection and measured at 48 hrs post-infection by luciferase reporter gene assay; format: functional, organism-based, HEK293T
[8] = Inhibition of RNase H activity of HIV-1 reverse transcriptase using DNA/RNA hybrid as substrate incubated for 30 mins by fluorescence based analysis; design: species or system Human immunodeficiency virus 1
[9] = tested on: Human immunodeficiency virus 1; format: functional, organism-based, HEK293T; details: hek293t
[10] = tested on: Human immunodeficiency virus 1; format: functional, organism-based, HEK293T
[11] = tested on: Human immunodeficiency virus 1; assay: as §1, with “L100I/K103N double” for “K103N”; format: functional, organism-based; details: hek293t
[12] = tested on: Human immunodeficiency virus 1; assay: as §1, with “G190A/K103N double” for “K103N”; format: functional, organism-based, HEK293T; details: hek293t
[13] = tested on: Human immunodeficiency virus 1; assay: as §1, with “V108I/K103N double” for “K103N”; format: functional, organism-based, HEK293T; details: hek293t
[14] = tested on: Human immunodeficiency virus 1; format: functional, organism-based, HEK293T; details: Human immunodeficiency virus 1, HEK-293T
[15] = Human immunodeficiency virus 1, HEK-293T

Row | Compound | EC50 [1] | CC50 (HEK-293T [2]) | Activity [3] | Activity (HEK-293T [4]) | selectivity ratio [5] | other results
1 | COn1cc(CC(=O)Nc2cc(C)cc(C)c2)c2ccccc21 | > 10 µM | > 30 µM | 87.28% | 62.62% |  | 
2 | CCCCOn1cc(CC(=O)Nc2ccccc2Cl)c2ccccc21 | 0.64 µM | 29.1 µM |  |  | 45.5 | 
3 | COn1cc(CC(=O)Nc2ccc(Cl)cc2)c2ccccc21 | > 10 µM | > 30 µM | 103.55% | 51.01% |  | 
4 | COn1cc(CC(=O)Nc2ccccc2)c2ccccc21 | > 10 µM | 28 µM | 113.22% |  |  | 
5 | CC(=O)On1cc(CC(=O)Nc2ccccc2Cl)c2ccccc21 | > 10 µM | 28.1 µM | 146.89% |  |  | 
6 | COC(=O)c1ccccc1NC(=O)CCc1cn(OC)c2ccccc12 | > 10 µM | 26.8 µM | 74.25% |  |  | 
7 | O=C(Cc1cn(OC(=O)c2ccccc2)c2ccccc12)Nc1ccccc1Cl | > 10 µM | 29.4 µM | 113.06% |  |  | 
8 | CCCCCCCCCCOn1cc(CC(=O)Nc2ccccc2Cl)c2ccccc21 | > 10 µM | > 30 µM | 97.73% | 52.8% |  | 
9 | COC(=O)c1ccccc1NC(=O)Cc1cn(O)c2ccccc12 | > 10 µM | 24.6 µM | 107.1% |  |  | 
10 | COc1ccccc1NC(=O)Cc1cn(OC)c2ccccc12 | > 10 µM | > 30 µM | 71.46% | 59.57% |  | 
11 | CCCCCCOn1cc(CC(=O)Nc2ccccc2Cl)c2ccccc21 | 1.02 µM | > 30 µM |  | 56.95% | > 29.4 | 
12 | COC(=O)c1cccc(NC(=O)Cc2cn(OC)c3ccccc23)c1 | > 10 µM | > 30 µM | 109.33% | 50.46% |  | 
13 | COn1cc(CC(=O)Nc2ccncc2Br)c2ccccc21 | 0.66 µM | 18.6 µM |  |  | 28.1 | 
14 | COc1cc(NC(=O)Cc2cn(OC)c3ccccc23)cc(OC)c1OC | > 10 µM | 13.9 µM | 47.94% |  |  | 
15 | CCOn1cc(CC(=O)Nc2ccccc2C(=O)OC)c2ccccc21 | 5.7 µM | > 30 µM |  | 52.76% | > 5.26 | 
16 | CCCOn1cc(CC(=O)Nc2ccncn2)c2ccccc21 | 3.3 µM | 17.9 µM |  |  | 5.43 | 
17 | CCCOn1cc(Cc2ccncc2)c2ccccc21 | > 10 µM | > 30 µM | 99.48% | 69.96% |  | 
18 | COC(=O)c1ccccc1NC(=O)CC1CNc2ccccc21 (stereo unspecified) | > 10 µM | > 30 µM | 82.96% | 71.46% |  | 
19 | CCCCCCCCCOn1cc(CC(=O)Nc2ccccc2Cl)c2ccccc21 | > 10 µM | 28.9 µM | 58.3% |  |  | 

Row | Compound | EC50 [1] | CC50 (HEK-293T [2]) | Activity [3] | Activity (HEK-293T [4]) | selectivity ratio [5] | other results
20 | O=C(Cc1cn(OCc2ccccc2)c2ccccc12)Nc1ccccc1Cl | 8.55 µM | 16.5 µM |  |  | 1.93 | 
21 | CCCCCCCOn1cc(CC(=O)Nc2ccccc2Cl)c2ccccc21 | 1.95 µM | 23.9 µM |  |  | 12.2 | 
22 | CCCOn1cc(Cc2c(Cl)cncc2Cl)c2ccccc21 | > 10 µM | > 30 µM | 93.41% | 77.47% |  | 
23 | COn1cc(CC(=O)Nc2ccccc2Br)c2ccccc21 | 3.2 µM | > 30 µM |  | 83.48% | > 9.38 | 
24 | CCCOn1cc(Cc2ccncc2Cl)c2ccccc21 | > 10 µM | > 30 µM | 65.67% | 67.37% |  | 
25 | COn1cc(CC(=O)Nc2ccc(C)cc2)c2ccccc21 | > 10 µM | > 30 µM | 124.35% | 52.47% |  | 
26 | COn1cc(CC(=O)Nc2ccccc2I)c2ccccc21 | 4.4 µM | > 30 µM |  | 67.04% | > 6.82 | 
27 | CCOn1cc(CC(=O)Nc2ccccc2Cl)c2ccccc21 | 0.86 µM | 20.8 µM |  |  | 24.2 | 
28 | COn1cc(CC(=O)Nc2ccccc2Cl)c2ccccc21 | 3.3 µM | 27.8 µM |  |  | 8.42 | 
29 | COn1cc(CC(=O)Nc2ccccc2F)c2ccccc21 | > 10 µM | 28.6 µM | 72.89% |  |  | 
30 | CCCCCOn1cc(CC(=O)Nc2ccncc2Cl)c2ccccc21 | 0.13 µM | 22 µM |  |  | 169 | 
31 | CCCOn1cc(CC(=O)Nc2ccccc2C(F)(F)F)c2ccccc21 | 4.28 µM | 24.9 µM |  |  | 5.81 | 
32 | COc1ccc(COn2cc(CC(=O)Nc3ccccc3Cl)c3ccccc32)cc1 | > 10 µM | 20.3 µM | 73.2% |  |  | 
33 | CCCOn1cc(CC(=O)Nc2ccncc2Cl)c2ccccc21 | 0.06 µM | 16.4 µM |  |  |  | IC50 [6]: 0.11 µM; EC50 [7, 15]: 0.7 µM; IC50 [8]: > 100 µM; EC50 [9]: 0.18 µM; EC50 ([10]; hek293t): 1.85 µM; EC50 [11]: 1.18 µM; EC50 [12]: 1.38 µM; EC50 [13]: 1.27 µM
34 | COn1cc(CC(=O)Nc2ccccc2C)c2ccccc21 | > 10 µM | > 30 µM | 53.31% | 62.74% |  | 
35 | CCCOn1cc(CC(=O)Nc2ccncc2F)c2ccccc21 | 0.33 µM | 14.1 µM |  |  | 42.8 | 
36 | COc1cccc(NC(=O)Cc2cn(OC)c3ccccc23)c1 | > 10 µM | > 30 µM | 104.29% | 86.68% |  | 
37 | COC(=O)c1ccc(NC(=O)Cc2cn(OC)c3ccccc23)cc1 | > 10 µM | > 30 µM | 104.33% | 72.64% |  | 
38 | CCCOn1cc(CC(=O)Nc2ccccc2C(=O)OC)c2ccccc21 | 6.7 µM | > 30 µM |  | 55.39% | > 4.48 | 

Row | Compound | EC50 [1] | CC50 (HEK-293T [2]) | Activity [3] | Activity (HEK-293T [4]) | selectivity ratio [5] | other results
39 | COn1cc(CC(=O)Nc2cccc(Cl)c2)c2ccccc21 | > 10 µM | > 30 µM | 113% | 61.02% |  | 
40 | COC(=O)c1ccccc1NC(=O)Cc1cn(OC)c2ccccc12 |  |  |  |  |  | IC50 [8]: > 30 µM
41 | COC(=O)c1ccccc1NC(=O)CCCc1cn(OC)c2ccccc12 | > 10 µM | > 30 µM | 82.07% | 61.31% |  | 
42 | COn1cc(CC(=O)Nc2ccc([N+](=O)[O-])cc2)c2ccccc21 | > 10 µM | > 30 µM | 81.41% | 54% |  | 
43 | COn1cc(CC(=O)Nc2ccccn2)c2ccccc21 | > 10 µM | > 30 µM | 138.11% | 63.67% |  | 
44 | COn1cc(CC(=O)Nc2cccnc2)c2ccccc21 | > 10 µM | > 30 µM | 118.26% | 78.7% |  | 
45 | COn1cc(CC(=O)Nc2ccncc2Cl)c2ccccc21 | 0.53 µM | 20 µM |  |  | 37.7 | 
46 | COn1cc(CC(=O)Nc2ccc(C)c(C)c2)c2ccccc21 | > 10 µM | > 30 µM | 95.02% | 51.62% |  | 
47 | O=C(Cc1cn(OCCc2ccccc2)c2ccccc12)Nc1ccccc1Cl | 5.5 µM | > 30 µM |  | 49.31% | > 5.45 | 
48 | CCCCCOn1cc(CC(=O)Nc2ccccc2Cl)c2ccccc21 | 0.63 µM | 18.7 µM |  |  | 29.7 | 
49 | COc1ccc(NC(=O)Cc2cn(OC)c3ccccc23)cc1 | > 10 µM | > 30 µM | 128.61% | 86.09% |  | 
50 | COc1cc(NC(=O)Cc2cn(OC)c3ccccc23)cc(OC)c1 | > 10 µM | 21.6 µM | 98.07% |  |  | 
51 | COC(=O)c1ccccc1NC(=O)Cc1c[nH]c2ccccc12 | > 10 µM | > 30 µM | 91.98% | 65.5% |  | 
52 | CCCCCCCCOn1cc(CC(=O)Nc2ccccc2Cl)c2ccccc21 | 4.4 µM | 22.9 µM |  |  | 5.21 | 
53 | CCOC(=O)c1ccccc1NC(=O)Cc1cn(OC)c2ccccc12 | > 10 µM | 29.1 µM | 60.76% |  |  | 
54 | CCc1ccccc1NC(=O)Cc1cn(OC)c2ccccc12 | > 10 µM | > 30 µM | 64.33% | 68.5% |  | 
55 | COn1cc(CC(=O)Nc2ccncc2)c2ccccc21 | 4.95 µM | 14.3 µM |  |  | 2.88 | 
56 | Cc1ccnc2c1NC(=O)c1cccnc1N2C1CC1 [NEVIRAPINE] |  | > 30 µM |  | 93.26% |  | EC50 ([7]; hek293t): 1.4 µM; EC50 [10, 15]: 80 µM; EC50 [11]: 0.76 µM; EC50 [14]: > 100 µM; EC50 [12]: 14.6 µM; EC50 [13]: 2.87 µM
